Experimental data taken from patent US11260118B2, “Immunogenic peptide composition” (Cancer Research Malaysia, priority 2017, dated 2022).
Where no end group is shown, it is not given here.

Legend:
[1] = test system: recurrent or metastatic HNSCC; details: human, in vivo; cited from earlier work
[2] = test system: mouse macrophage cell line RAW264.7
[3] = test system: target cells 195M (MAGED4B) and C666.1F (FJX1)
Procedure: The cytotoxic ELISPOT assay was used to study the response of peptide-pulsed CTLs derived from the patients to target cell lines overexpressing the target antigens. CTLs were co-cultured with target cells, where this culture was re-suspended in complete culture media supplemented with IL-7 and interleukin 2 (IL-2) proteins and applied to IFNγ and granzyme B ELISPOT plates. The cell suspension was further incubated to allow the interaction between CTLs and target cell line before determining the potential killing ability of CTLs against FJX1 and MAGED4b expressing target cells.
Dendritic cells from patients were isolated and subsequently used as antigen presenting cells. Briefly, PBMCs were re-suspended in macrophage-serum free media (M-SFM) (Gibco, Thermo Fisher, MA, USA), seeded in a 6-well plate and incubated for 1 hour at 37° C. After incubation, non-adherent cells from PBMCs were collected, rinsed in HBSS and then re-suspended in complete culture media contained 10 ng/ml IL-7. Approximately 2-5×10^5 cells per well were seeded into round bottom 96-well plates. Cells were then incubated for 2-5 days at 37° C. for T cell expansion with the addition of 50 μg/ml of peptides. The adherent cells resulting from the incubation, were cultured at 37° C. for 2-5 days in M-SFM in the presence of 100 ng/ml GM-CSF and 25 ng/ml IL-4 to induce differentiation of dendritic cells (DCs). […]

HNSCC = details: cited from earlier work

Substance: pembrolizumab
- objective response rate (complete or partial response of tumour size reduction) [1]: 16%

Substance: WLLALGSLLAL [F1, WLLALGSLLAL]
- degree of inflammation / iNOS accumulation [2]: low
- production of nitrite, fold lower than LPS positive control [2]: 10 fold

Substance: SLYNTYATL [HIV peptide]
- IFNγ and granzyme B secretion / cytotoxic T cell response after in vitro peptide stimulation [3]: induces increased levels of IFNγ and Granzyme B secretion

Substance: RLSLLLVIL [M6]
- degree of inflammation / iNOS accumulation [2]: low

Substance: nivolumab
- overall survival rate of HNSCC patients (HNSCC; 16% in standard therapy group): 36%
- grade 3 or grade 4 events versus standard therapy (HNSCC; human, in vivo): fewer grade 3 or grade 4 events
- response rate of HNSCC patients (HNSCC; human, in vivo): 13%
- survival longer than standard therapy group (HNSCC; human, in vivo): 2.4 months
